The structures appear in SMILES notation.

Experiment [1] has as its system global ischaemia in adult rats. The experiment in a line: Global ischaemia by four-vessel occlusion, neuronal death by Fluoro-Jade B after 5 d reperfusion. The class given is in vivo. Particulars: R5d, 0.1 mg/kg intraperitoneally. The text has this: (§1) Global ischaemia was induced in adult rats according to the conventional four-vessel occlusion method [(a) Martín de la Vega C, Burda J, Nemethova M, Quevedo C, Alcázar A, Martín M E, Salinas M. Possible mechanisms involved in the down-regulation of translation during transient global ischaemia in the rat brain. Biochem J 2001, 357, 819-826; (b) García-Bonilla L, Cid C, Alcázar A, Burda J, Ayuso I, Salinas M. Regulation proteins of eukaryotic initiation factor 2-alpha subunit (eIF2a) phosphatase, under ischemic reperfusion and tolerance. J Neurochem 2007, 103, 1368-1380; (c) Ayuso M I, Hernández-Jiménez M, Martín M E, Salinas M, Alcázar A. New hierarchical phosphorylation pathway of the translational repressor eIF4E-binding protein 1 (4E-BP1) in ischemia-reperfusion stress. J Biol Chem 2010, 285, 34355-34363].
(§2) Therefore, the two vertebral arteries were completely cauterized, and after 24 h ischaemia is induced by carotid occlusion by means of small clamps for 15 min; the clamps were then removed and reperfusion was performed. After 5 d (R5d), the animals were sacrificed. The animals were treated with cholesteronitrone F2, diluted in 10% ethanol in saline solution as a carrier, administered intraperitoneally from the beginning of the reperfusion period. Ten animals were tested; one of the five animals treated with carrier died 2 d after reperfusion. All the protocols used in the experiments with animals were performed according to the guidelines approved by the Ethics Committee of Hospital Ramón y Cajal (Madrid). In the model of four-vessel occlusion cerebral ischaemia in rats, after a brief period of ischaemia delayed neurodegeneration is produced in the CA1 region of the hippocampus [(a) Kirino T. Delayed neuronal death. Neuropathology 2000, 20, S95-S97; (b) Pulsinelli W A, Brierley J B, Plum F. Temporal profile of neuronal damage in a model of transient forebrain ischaemia. […]

For experiment [2], the system named is primary neuronal cultures taken from the cerebral cortex of rats. In words: Long-term neuroprotection in neuronal cultures exposed to OGD 4 h and reperfusion for 5 d (R5d), MTT. Type of experiment: cell-based. The protocol: To evaluate the neuroprotective power of cholesteronitrones F2 and F3 against ischaemic damage in cultured neurons and simulate long-term reperfusion conditions, the cultures were exposed to OGD for 4 h, and the cells were then subjected to reperfusion for 5 d (R5d).
Cholesteronitrones F2 and F3 (at concentrations of 1.0 and 5.0 μM) were added at the beginning of the reperfusion period and after 48 h of reperfusion, to thus evaluate their long-term neuroprotective power, again using the reference molecule citicoline, according to the protocol of the MTT (see above).

The test system of experiment [3] is global ischaemia in adult rats. In words: Global ischaemia by four-vessel occlusion, apoptosis by TUNEL method after 5 d reperfusion. The class given is in vivo. To be noted: R5d.
Text: as §1, §2

Experiment [4] relates to primary neuronal cultures taken from the cerebral cortex of rats. In words: Neuroprotection in primary neuronal cultures exposed to OGD 4 h and 24 h reperfusion (MTT cell viability). Particulars: for neuronal viability (versus 100% control): added at beginning of reperfusion, OGD 4 h, R24h. The class given is cell-based. From the text: The neuroprotective power of cholesteronitrones F2 and F3 has been determined in primary neuronal cultures, cultured from 6 to 8 days, taken from the cerebral cortex of rats (Quevedo, C, Salinas, M, Alcázar, A. Initiation factor 2B activity is regulated by protein phosphatase 1, which is activated by the mitogen-activated protein kinase-dependent pathway in insulin-like growth factor 1-stimulated neuronal cells. J. Biol. Chem. 2003, 278, 16579-16586), and subjected to oxygen-glucose deprivation (OGD) (Chioua M, Sucunza D, Soriano E, Hadjipavlou-Litina D, Alcázar A, Ayuso I, Oset-Gasque M J, González M P, Monjas L, Rodríguez-Franco M I, Marco-Contelles J, Samadi A. α-aryl-N-alkyl nitrones, as potential agents for stroke treatment: synthesis, theoretical calculations, antioxidant, anti-inflammatory, neuroprotective, and brain-blood barrier permeability properties. J Med Chem. 2012, 55, 153-168), according to the following protocol:
Cell viability was measured using 3-(4,5-dimethylthiazol-2-yl)-2,5-diphenyl tetrazolium bromide (MTT).
Cholesteronitrones F2 and F3, in a range of concentrations from 0.1 to 100 μM, and from 0.5 to 10 μM, respectively, were added at the beginning of the reperfusion period to evaluate their neuroprotective power, using citicoline, a well-known neuroprotective agent, as a reference compound (Adibhatla, R M, Hatcher, J F, Dempsey, R J. Citicoline: neuroprotective mechanisms in cerebral ischemia. J. Neurochem. 2002, 80, 12-23). Citicoline was tested at variable concentrations, between 1 μM and 1 mM, a neuroprotective effect being found at 10 and 100 μM (87.4 and 88.1%, respectively), the effect of 100 μM being significant compared with the value obtained at R24h (analysis of variance (ANOVA), p<0.0021; and p<0.01, post-Dunnett test].

Setting [5] is: 1 μM, added at the beginning of reperfusion.
Where [6] appears, read: 5 μM, added at the beginning of reperfusion.

As for `CC(C)CCC[C@@H](C)[C@H]1CC[C@H]2[C@@H]3CCC4=C/C(=[N+](\C)[O-])CC[C@]4(C)[C@H]3CC[C@]12C` [cholesteronitrone F2, (E)-N-((8S,9S,10R,13R,14S,17R)-10,13-dimethyl-17-((R)-6-methylheptan-2-yl)-7,8,9,11,12,13,14,15,16,17-decahydro-1H-cyclopenta[a]phenanthren-3(2H,6H,10H)-ylidene)methanamine oxide], the “neuronal death, Fluoro-Jade B” value in experiment [1] (CA1 region, saline/carrier 70.4±2.4) is listed as 55.1±3.4 cells per field; in experiment [1] (cerebral cortex, carrier 6.7±3.5), 0±0.1 cells per field; in experiment [1] (lateral cortex, carrier 13.4±3.6) it was 6.3±2.2. The “neuronal viability in R5d experiment (versus 100% control)” value in experiment [2] (1 μM, added after 48 h of reperfusion) came to 95.7%; in experiment [2] (setting [5]), 110.6%; in experiment [2] (setting [6]), 118.2%. For the same compound, the “neuronal apoptotic death, TUNEL-positive” value stood at 48.5±0.4 nuclei per field in experiment [3] (CA1 area, carrier 64.1±7.1); 1±0.5 nuclei per field in experiment [3] (cerebral cortex, carrier 7.2±3.8); 4.3±1.4 in experiment [3] (lateral cortex, carrier 13.3±6.2). Besides, the “Neuroprotection (%)” value in experiment [4] (0.1 μM, OGD conditions) is recorded as 9.6 ± 0.5%; in experiment [4] (0.5 μM, OGD conditions) it was 49.3 ± 3.6%; in experiment [4] (1.0 μM, OGD conditions), 54.3 ± 1.3 %; in experiment [4] (5.0 μM, OGD conditions), 80.7 ± 2.7 %; in experiment [4] (10 μM, OGD conditions), 47.2 ± 1.4%; in experiment [4] (50 μM, OGD conditions) it was <0%. The “Neuroprotection (%)” value in experiment [4] (100 μM, OGD conditions) is <0%. For the same compound, the “neuronal viability (versus 100% control)” value was 89.1% in experiment [4] (1 μM) and 95.5% in experiment [4] (5 μM). For the same compound, in experiment [4] (5 μM, OGD conditions), the “neuroprotection compared with citicoline” value is given as “significantly higher neuroprotection than that observed for citicoline”.
`C[N+](C)(C)CCOP(=O)(O)OP(=O)([O-])OC[C@H]1O[C@@H](n2ccc(N)nc2=O)[C@H](O)[C@@H]1O` [citicoline, reference compound]: the “neuronal viability in R5d experiment (versus 100% control)” value came out at 74.6% in experiment [2] (100 μM, added after 48 h of reperfusion) and 76.0% in experiment [2] (100 μM, added at the beginning of reperfusion). Besides, the “neuronal viability (versus 100% control)” value is on record as 87.4% in experiment [4] (10 μM) and 88.1% in experiment [4] (100 μM). In addition, the “Neuroprotection (%)” value in experiment [4] (100 μM, OGD conditions) turned out to be 50.2 ± 1.26%.
In the case of `CC(C)CCC[C@@H](C)[C@H]1CC[C@H]2[C@@H]3CCC4=C/C(=[N+](/C)[O-])CC[C@]4(C)[C@H]3CC[C@]12C` [cholesteronitrone F3, (Z)—N-((8S,9S,10R,13R,14S,17R)-10,13-dimethyl-17-((R)-6-methylheptan-2-yl)-7,8,9,11,12,13,14,15,16,17-decahydro-1H-cyclopenta[a]phenanthren-3(2H,6H,10H)-ylidene)methanamine oxide], the “neuronal viability in R5d experiment (versus 100% control)” value in experiment [2] (setting [5]) was 105.6%; in experiment [2] (5 μM, added after 48 h of reperfusion), 97.8%; in experiment [2] (setting [6]), 118.6%. The “Neuroprotection (%)” value in experiment [4] (0.5 μM, OGD conditions) was <0%; in experiment [4] (1.0 μM, OGD conditions) it was 18.8 ± 1.1%; in experiment [4] (5.0 μM, OGD conditions), 21.7 ± 1.2%; in experiment [4] (10 μM, OGD conditions) it was 0.8 ± 0.07%. Moreover, the “significant increase of neuronal viability during reperfusion” value in experiment [4] (1 or 5 μM, compared with R24h) is reported as “not”.
